Source: patent publication US6395932B1, “1,2-diphenyl-2-propen-1-one derivatives” (Santen Pharmaceutical Co., Ltd., priority 1999, dated 2002)

Tested on: bovine cultured trabecular meshwork cells
Assay: Effects on morphology of bovine cultured trabecular meshwork cells (image analysis of cell area)
Type: cell-based
Conditions: Bos taurus, 3 h, drug treatment for three hours at 37° C., rate of change in area by image analysis, read-out: EC50 (concentration required to reduce the cell area of the trabecular meshwork cells by 50%)
Excerpt: In order to study utility of the present compounds in glaucoma, effects of the present compounds on morphology of trabecular meshwork cells were investigated.
The possibility has been reported that drugs having effects of increasing aqueous humor outflow can be found by evaluating effects of drugs on morphology of cultured trabecular meshwork cells (Invest. Ophthalmol. Vis. Sci., 33, 2631-2640 (1992)). Accordingly, effects of the present compounds on morphology of bovine cultured trabecular meshwork cells were studied in the similar manner to the method described in the above-mentioned literature.
Morphological changes in bovine cultured trabecular meshwork cells by adding the present compounds were quantitatively evaluated by image analysis.
Bovine trabecular meshwork cells (passage number 2 to 5) cultured in a basal medium for mammalian cell culture D-MEM (Dulbecco's Modified Eagle Medium, manufactured by Gibco Co., Ltd.) containing fetal bovine serum (10%), amphotericin B (2.5 μg/ml) and gentamicin (50 μg/ml) were treated with a trypsin-EDTA solution (0.05% trypsin, 0.53 mM EDTA·4Na) 24 hours before the later drug treatment and seeded in a 24-well plate (10^4 cells/well). Twelve hours before the later drug treatment, the cells were washed with phosphate-buffered physiological saline, and then the medium was replaced by D-MEM containing amphotericin B (2.5 μg/ml) and gentamicin (50 μg/ml) (hereinafter referred to as “medium A”).
A test compound was dissolved in dimethyl sulfoxide (DMSO), and the medium A was added to the solution, followed by sterilizing the solution by filtration. The medium A was further added to the solution to dilute it at a prescribed concentration. […]
Photographed cell images were incorporated from the photographs into an image analysis system with a CCD camera (manufactured by HAMAMATU Co., Ltd.). Outlines of the incorporated cell images were traced, and areas were measured. […]

| Compound | EC50 [nM] |
| --- | --- |
| C=C(C(=O)c1ccc(/C=C/CN(C)C)cc1)c1ccccc1 [Compound No. 4-1, 1-[4-[(E)-3-(Dimethylamino)-1-propenyl]phenyl]-2-phenyl-2-propen-1-one] | 580 |
| C=C(C(=O)c1ccc(CCCN(C)C)cc1)c1ccccc1 [Compound No. 4-2, 1-[4-[3-(Dimethylamino)propyl]phenyl]-2-phenyl-2-propen-1-one] | 840 |
| C=C(CC)C(=O)c1ccc(OCC(=O)O)c(Cl)c1Cl [Ethacrynic acid, reference compound] | 62000 |
